Patent publication US8653046B2, “Controlling transgene expression across the skin” (ETH Zurich, priority 2009, dated 2014)

Assays:
[1] = Stability (half-live) of phloretin in culture medium, quantified via CHO-PEACE8 SEAP calibration curve; type: physicochemical
[2] = target: T1, tetracycline-responsive control system (PSV40-tTA-pA; PhCMV*-1-SAMY-pA) (Escherichia coli, UniProt P04483); experiment: Compatibility test: tetracycline-responsive (TETOFF) SAMY production in CHO-PEACE8 (pSAM200, pBP99); type: cell-based; settings: CHO-PEACE8 transiently transfected with tetracycline-responsive control system; Phl 50 μM, Tet 2 μg/mL; 48 h; 100 = no inducer
T1 construct: expressed in transfected cells; host or cells: CHO-PEACE8 transiently transfected with pSAM200 and pBP99
Description: (§1) To evaluate the functional compatibility of PEACE with the established tetracycline— [TETOFF; Gossen M., Bujard H., 1992, Proc Natl Acad Sci USA 89(12):5547-5551] and macrolide— [EOFF; Weber W., et al., 2002, Nat Biotechnol 20(9):901-907] responsive expression circuits CHO-PEACE8 is transiently transfected, transgenic for phloretin-responsive SEAP expression, with either the TETOFF-(pSAM200, PSV40-tTA-pA; pBP99, PhCMV*-1-SAMY-pA) or the EOFF-(PWW35, PSV40-ET1-pA; pBP100, PETR3-SAMY-pA) system set to control the Bacillus stearothermophilus-derived secreted α-amylase (SAMY) in response to tetracycline and erythromycin, respectively. SEAP and SAMY expression are scored 48 h after cultivation of the transfected populations in the presence (50 μM; 2 μg/mL) or absence of the inducer molecules (phloretin, tetracycline, erythromycin).

[3] = test system: macrolide-responsive control system (ET1, E-VP16; PETR3-SAMY-pA); experiment: Compatibility test: macrolide-responsive (EOFF) SAMY production in CHO-PEACE8 (pWW35, pBP100); type: cell-based; settings: CHO-PEACE8 transiently transfected with macrolide-responsive control system; Phl 50 μM, EM 2 μg/mL; 48 h; 100 = no inducer
Description: as §1

[4] = test system: microencapsulated CHO-PEACE8 implants; experiment: Transdermal phloretin control of SEAP from microencapsulated CHO-PEACE8 implanted subcutaneously in mice; type: in vivo, female OF1 mice; settings: vaseline-based skin lotion 200 μL, 0-42 mg phloretin, every day; 72 h after implantation
Experimental: (A) Microencapsulated CHO-PEACE8 are implanted subcutaneously into female OF1 mice (2×10^6 cells/mouse). 200 μL of a cream containing different amounts of phloretin (0, 5.25, 10.5, 21 and 42 mg) is applied to a shaved skin area near the implant site. SEAP serum levels are quantified 72 h post implantation.
CHO-PEACE8 is microencapsulated in coherent alginate-PLL-alginate capsules and implanted subcutaneously into mice. The back of treated mice is partially shaved and vaseline-based skin lotions (200 μL) containing different amounts of phloretin (0-42 mg) are put on every day. […]
CHO-PEACE8 and CHO-SEAP18 (Fluri D. A., Kemmer C., Daoud-El Baba M., Fussenegger M., 2008, J Control Release 131(3):211-219) are encapsulated in alginate-poly-(L-lysine)-alginate beads (400 μm; 200 cells/capsule) using an Inotech Encapsulator Research IE-50R (Recipharm, Basel, Switzerland) according to the manufacturer's instructions and the following parameters: 0.2 mm nozzle, 20 mL syringe at a flow rate of 405 units, nozzle vibration frequency of 1024 Hz and 900 V for bead dispersion. […] Thereafter, the mice are sacrificed, blood samples collected and SEAP levels are quantified in the serum which is isolated using microtainer SST tube according to the manufacturer's instructions (Beckton Dickinson, Plymouth, UK). […]

[5] = rodents, cited from earlier work
CHO-K1 = experiment: Impact of phloretin on CHO-K1 engineered for constitutive SEAP expression (SEAP production, viable cell density); type: cell-based, Chinese hamster; settings: 48 h
Experimental: CHO-K1 engineered for constitutive SEAP expression are cultivated in culture medium supplemented with different phloretin concentrations (0-100 μM) and SEAP production (bars) as well as maximum cell density are assessed after 48 h (line). Abbreviations: C.D.: Cell Density (10^6/mL); Phl.: Phloretin (μM)
To evaluate the stability of phloretin in culture medium and assess its impact on mammalian cells, standard ChoMaster® HTS medium is supplemented with increasing concentrations of phloretin (0, 25, 50, 75, 100 μM), and this medium is incubated in the presence and absence of CHO-K1 engineered for constitutive SEAP expression (pSEAP2-Control; PSV40-SEAP-pA, Clontech). […] Phloretin levels determined over a period of 64 h in cell-free culture medium establish a functional half-live of 70 h for this flavonoid.

TtgA3 (TtgR-E2F4) = experiment: PEACE: SEAP expression after transient co-transfection of pMG10 and pMG19 (PSV40-TtgA3-pA); type: cell-based, Pseudomonas putida DOT-T1E; settings: 48 h
Description: Three different transactivators are designed, harboring either the VP16 (TtgA1; pMG11, TtgR-VP16) (Triezenberg S. J. et al., loc. cit.), the p65 (TtgA2; pMG18, TtgR-p65) (Urlinger S., et al., 2000, Gene 247(1-2):103-110) or the human E2F4 (TtgA3; pMG19, TtgR-E2F4) (Akagi K., Kanai M., Saya H., Kozu T., Berns A., 2001, Nucleic Acids Res 29(4):e23) transactivation domains. pMG11, pMG18 or pMG19 are co-transfected with pMG10 (PTtgR1-SEAP-pA) into CHO-K1, HEK-293 as well as primary human fibroblasts and keratinocytes, and SEAP expression is profiled after 48 h of cultivation in the presence or absence of 50 μM phloretin. […] All transactivators mediate similar basal expression levels when phloretin is […] in the medium, but due to their cell-type specificity and graded maximum transcription-initiation capacities, the three transactivators offer a selection of defined expression windows.

T1 sequence (P04483 whole entry, added parts left off): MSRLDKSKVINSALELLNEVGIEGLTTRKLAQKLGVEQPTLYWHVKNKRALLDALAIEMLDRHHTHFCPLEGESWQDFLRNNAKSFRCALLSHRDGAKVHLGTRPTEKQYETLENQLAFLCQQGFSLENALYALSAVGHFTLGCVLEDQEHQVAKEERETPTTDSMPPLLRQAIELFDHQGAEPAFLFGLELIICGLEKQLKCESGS

## O=C(CCc1ccc(O)cc1)c1c(O)cc(O)cc1O [phloretin, 3-[4-hydroxyphenyl]-1-[2,4,6-trihydroxyphenyl]-1-propanone]
[1]; cell-free culture medium, levels determined over 64 h
  functional half-live: 70 h
[1]; mammalian cell culture systems
  half-live: 70 h
[2]
  Relative SAMY Production (%): 98.1 ± 2.8%
[3]
  Relative SAMY Production (%): 100.6 ± 7.0%
[4]
  SEAP serum levels in treated mice: phloretin-dependent dose-response characteristics
[5]
  half-life in vivo: rather short half-life in vivo
[5]; dermal administration
  systemic distribution after dermal administration: systemically spread
CHO-K1; CHO-K1 constitutive SEAP (pSEAP2-Control), phloretin 0, 25, 50, 75, 100 μM
  impact on heterologous protein (SEAP) production: no negative impact on heterologous protein production
CHO-K1; phloretin up to 100 μM
  viable cell density / CHO-K1 proliferation: does not compromise CHO-K1 proliferation
TtgA3 (TtgR-E2F4); CHO-K1, phloretin 50 μM
  SEAP Production: 0.26 ± 0.08 U/L
TtgA3 (TtgR-E2F4); HEK-293, phloretin 50 μM
  SEAP Production: 0.2 ± 0.016 U/L
TtgA3 (TtgR-E2F4); HaCaT, phloretin 50 μM
  SEAP Production: 0.5 ± 0.05 U/L
